* marks the point of attachment. For = O=C*
Assays:
[1] = tested on: E. coli MccB; assay: In vitro adenylation of MccA peptides by MccB, HPLC read-out; assay type: biochemical, Escherichia coli; conditions: 500 μM peptide, 5 μM MccB, 28°C, 20 min, HPLC 260 nm; for Yield of adenylated peptide (unformylated peptides): ATP
Description: In previous work, it was shown that E. coli MccB is able to modify a wide range of substrates in vivo and in vitro, including MBP protein with attached A7 peptide ([14]). To test MccB activity on elongated substrates encoded by pA11 and pA15, we incubated purified MccB with ATP and chemically synthesized A11 and A15 peptides and measured adenylated peptide yields by high-pressure liquid chromatography (HPLC) (Fig. 6). […] We next repeated the experiment with N-terminally formylated versions of each peptide that correspond to the products of ribosomal synthesis. […] We conclude that under our conditions, the presence of the formyl group on the N-terminal methionine residue selectively amplified the yields of MccA heptapeptide adenylation compared to adenylation yields of longer peptides A11 and A15.
FIG 6 In vitro adenylation of MccA peptides of different lengths by MccB. HPLC traces (260 nm) showing product formation after incubation of equal molar amounts of A7 (MRTGNAN), A11 (MGGGMRTGNAN), and A15 (MASTAGGGMRTGNAN) peptides and their N-terminally formylated variant peptides (marked with the f prefix) with MccB in the reaction buffer for 20 min at 28°C.
For adenylation efficiency measurements, 500 μM peptide was incubated with 5 μM MccB at 28°C for 20 min, and then the reaction was quenched with 0,1% TFA and analyzed using C18 reversed-phase chromatography (Symmetry C18, 5 μm, 4.6 mm by 150 mm; Waters). A 0% to 15% linear gradient of acetonitrile in 0.1% TFA was applied for elution. The identities of the compounds in the chromatographic fractions were confirmed by MALDI-TOF MS.

[2] = tested on: some strains of E. coli; conditions: cited from earlier work
Excerpt: Thus, the minimal set of three genes in an mcc cluster, encoding the precursor peptide, the adenylating enzyme, and the export pump protein, should be sufficient for production of McC-like antibacterial compounds. Bioinformatics searches reveal that genes coding for MccB-like proteins can be found in various bacteria that are phylogenetically distant from E. coli ([10]).

[3] = formylated versus unformylated peptide

Substance | Decrease in adenylated product yield on N-terminal formylation, compared to the unformylated peptide [1, 3] | Yield of adenylated peptide (unformylated peptides) [1] | Increase in adenylated product yield on N-terminal formylation, compared to the unformylated peptide [1, 3] | Increase in adenylated product yield on N-terminal formylation, compared to the unformylated peptide ([1]; formylated versus unformylated peptide, listed as heptapeptide MccA) | Increase of toxicity of McC by the aminopropyl moiety [2]
MASTAGGGMRTGNAN [A15, 15-amino-acid MccA-based peptide […]] | ~3 fold | comparable yields |  |  | 
MGGGMRTGNAN [A11, 11-amino-acid MccA-based peptide […]] |  | comparable yields | ~2 fold |  | 
MRTGNAN [A7, 7-amino-acid McC precursor peptide MRTGNAN, chemically synthesized] |  | comparable yields | approximately 8 fold | ~10 fold | 
Microcin C (For-MRTGNAN-{adenylate (N-P bond, aminopropyl on phosphoramidate)}) [McC, heptapeptide adenylate antibiotic, formylated, with aminopropyl on the phosphoramidate] |  |  |  |  | 4- to 10 fold

Reference: article PMC6495379, “Reiterative Synthesis by the Ribosome and Recognition of the N-Terminal Formyl Group by Biosynthetic Machinery Contribute to Evolutionary Conservation of the Length of Antibiotic Microcin C Peptide Precursor” (mBio, 2019)
